In patent US20250235450A1, “COMBINATION THERAPIES COMPRISING APREMILAST AND TYK2 INHIBITORS” (Celgene Corporation, priority 2019, published 2025):
Entries after “also recorded” stand apart in the source; their conditions may differ.

Legend:
[1] = test system: moderate to severe plaque psoriasis; details: cited from earlier work
[2] = test system: LPS stimulated PBMCs; experiment: Cytokine production in LPS stimulated PBMCs; assay type: cell-based, human; parameters: key to IL-2 / IFNα2 / IFSNβ / IL-4 / IL-5 / IL-6 / IL-10 / IL-13 / IL-15 / IL-17 / IL-22 / IL-1β / IL-1ra / IL-23 / IL-12p40 / IL-12p70 / TNF-α / IFNγ / MCP-1 / GM-CSF / G-CSF: ↑: Induced; —: No change; ↓: Reduced; details: for effect on IFN-γ production / effect on IL-12p40 production / effect on IL-12p70 production / effect on IL-23 production / effect on MCP-1 production / effect on TNF-α production: vs DMSO control
Method: Peripheral blood mononuclear cells (PBMCs) isolation: Whole blood was received through the Celgene Donor program after informed consent and donor deidentification. All volunteers were healthy and were not on any medications for at least 72 hours prior to the blood draw. Blood was collected in Sodium Heparin tubes and were used within 2 hours of the blood draw for PBMCs isolation. Before PBMCs isolation, whole blood was diluted 1:1 with PBS solution containing 2% FBS (2% FBS-PBS). 13 ml of Ficoll-Paque solution was loaded in the SepMate® tube and 25 ml of diluted blood was loaded on top of the Ficoll-Paque. Centrifugation at 1200 g for 15 minutes with the brake on for cell separation, after which isolated PBMCs were transferred into a new tube. PBMCs were washed with 2% FBS-PBS and centrifuged at 800 g 10 minutes. Pellets were resuspended in 2% FBS-PBS and filtered through a 40 μm cell strainer to obtain single-cell suspension. 3 ml of RBC lysis buffer were used to eliminate red blood cells in the isolated population. Isolated PBMCs were washed with 2% FBS-PBS and were resuspended in RPMI growth medium containing 10% FBS and antibiotics.
For Example 6-11, PBMCs from 9 healthy donors were isolated and LPS-stimulated ex-vivo for IL-23, IL-12p40, IL-12p70, TNF-α, IFN-γ and MCP-1 cytokine analysis. PBMCs were plated in 96 well plate at a density of 200,000 cells per well in 200 μl of RPMI growth medium containing 10% FBS followed by treatment with DMSO and compounds. Each well received the same amount of DMSO, which is 0.3% v/v as final concentration. Series dilutions of compound treatment was performed according to Table 4 shown below. After two hours of compound treatment, LPS 100 ng/ml as final concentration was used as the stimulator. PBMCs were then incubated in a 37° C./5% CO2 incubator for 16 hours.
After 16 hours incubation, supernatants were collected into new 96-well polypropylene plates and centrifuged at 4000 rpm for 10 minutes to get rid of cell debris. Cytokine production was measured by Luminex Bio-Plex Multiplex Immunoassay (Bio-Rad) according to the manufacturer's procedures. To ensure that supernatant level was within the range of the standard cytokine for the assay, samples were diluted 5 fold for IL-12p40 and 27-plex assays, and used neat for IL-23 assay.
Data processing for PBMCs assays was done using Bio-plex manager, and raw data was exported to Excel template for the cytokine analysis. Data was plotted using GraphPad Prism 7.0 (GraphPad Software, Inc., La Jolla, CA) and expressed as % of DMSO control. Statistical analysis was performed using One Way ANOVA and Tukey's multiple comparisons test.
To evaluate the combinatory effect of apremilast and BMS-986165, data from the two independent treatments were analyzed by comparing the combinatory response against the theoretical additive response of the two agents. The expected additive effect of two agents (A and B) was calculated using the fractional product method: (fu)A,B=(fu)A×(fu)B; where fu=fraction unaffected by treatment.

[2H]C([2H])([2H])NC(=O)c1nnc(NC(=O)C2CC2)cc1Nc1cccc(-c2ncn(C)n2)c1OC [BMS-986165, 6-(cyclopropanecarboxamido)-4-((2-methoxy-3-(1-methyl-1H-1,2,4-triazol-3-yl)phenyl)amino)-N-(methyl-d3)pyridazine-3-carboxamide]
phase 2 clinical trial outcome ([1]; subjects with moderate to severe plaque psoriasis): positive results
increase of IL-23 compared to DMSO group ([2]; 0.2 μM-2 μM BMS-986165): 20 fold
G-CSF ([2]; LPS stimulated PBMCs): ↑
GM-CSF ([2]; LPS stimulated PBMCs): ↑
IFNα2 ([2]; LPS stimulated PBMCs): —
IFNγ ([2]; LPS stimulated PBMCs): ↓
IFSNβ ([2]; LPS stimulated PBMCs): —
IL-1ra ([2]; LPS stimulated PBMCs): ↓
IL-1β ([2]; LPS stimulated PBMCs): —
IL-2 ([2]; LPS stimulated PBMCs): —
IL-4 ([2]; LPS stimulated PBMCs): —
IL-5 ([2]; LPS stimulated PBMCs): —
IL-6 ([2]; LPS stimulated PBMCs): —
IL-10 ([2]; LPS stimulated PBMCs): —
IL-12p40 ([2]; LPS stimulated PBMCs): ↑
IL-12p70 ([2]; LPS stimulated PBMCs): ↑
IL-13 ([2]; LPS stimulated PBMCs): ↑
IL-15 ([2]; LPS stimulated PBMCs): —
IL-17 ([2]; LPS stimulated PBMCs): —
IL-22 ([2]; LPS stimulated PBMCs): —
IL-23 ([2]; LPS stimulated PBMCs): ↑↑
MCP-1 ([2]; LPS stimulated PBMCs): ↓
TNF-α ([2]; LPS stimulated PBMCs): ↑
effect on IL-12 ([2]; LPS stimulated PBMCs): increased
increase of TNF-α ([2]; LPS stimulated PBMCs, BMS-986165 alone): 1.2-1.5 fold
effect on IFN-γ production ([2]; LPS stimulated PBMCs): decreased; also recorded: reduced
effect on IL-12p40 production ([2]; LPS stimulated PBMCs): increased; also recorded: induced
effect on IL-12p70 production ([2]; LPS stimulated PBMCs): increased; also recorded: induced
effect on IL-23 production ([2]; LPS stimulated PBMCs): induced; also recorded: increased
effect on MCP-1 production ([2]; LPS stimulated PBMCs): decreased; also recorded: reduced
effect on TNF-α production ([2]; LPS stimulated PBMCs): induced; also recorded: increased

CCOc1cc([C@@H](CS(C)(=O)=O)N2C(=O)c3cccc(NC(C)=O)c3C2=O)ccc1OC [Apremilast, N-[2-[(1S)-1-(3-ethoxy-4-methoxyphenyl)-2-(methylsulfonyl)ethyl]-2,3-dihydro-1,3-dioxo-1H-isoindol-4-yl]acetamide]
reduction in plaque psoriasis ([1]; achievable in some patients, just over 4 months of treatment): 75%
G-CSF ([2]; LPS stimulated PBMCs): ↑
GM-CSF ([2]; LPS stimulated PBMCs): ↓
IFNα2 ([2]; LPS stimulated PBMCs): —
IFNγ ([2]; LPS stimulated PBMCs): ↓
IFSNβ ([2]; LPS stimulated PBMCs): —
IL-1ra ([2]; LPS stimulated PBMCs): —
IL-1β ([2]; LPS stimulated PBMCs): —
IL-2 ([2]; LPS stimulated PBMCs): ↓
IL-4 ([2]; LPS stimulated PBMCs): —
IL-5 ([2]; LPS stimulated PBMCs): —
IL-6 ([2]; LPS stimulated PBMCs): —
IL-10 ([2]; LPS stimulated PBMCs): ↑
IL-12p40 ([2]; LPS stimulated PBMCs): ↓
IL-12p70 ([2]; LPS stimulated PBMCs): ↓
IL-13 ([2]; LPS stimulated PBMCs): —
IL-15 ([2]; LPS stimulated PBMCs): —
IL-17 ([2]; LPS stimulated PBMCs): —
IL-22 ([2]; LPS stimulated PBMCs): —
IL-23 ([2]; LPS stimulated PBMCs): ↓
MCP-1 ([2]; LPS stimulated PBMCs): ↓
TNF-α ([2]; LPS stimulated PBMCs): ↓
effect on IL-12 ([2]; LPS stimulated PBMCs): inhibited
effect on IFN-γ production ([2]; LPS stimulated PBMCs): decreased; also recorded: reduced
effect on IL-12p40 production ([2]; LPS stimulated PBMCs): decreased
effect on IL-12p70 production ([2]; LPS stimulated PBMCs): decreased
effect on IL-23 production ([2]; LPS stimulated PBMCs): decreased; also recorded: inhibited
effect on MCP-1 production ([2]; LPS stimulated PBMCs): decreased; also recorded: reduced
effect on TNF-α production ([2]; LPS stimulated PBMCs): decreased; also recorded: inhibited
